In patent US20050019268A1, “Spray containing ubiquinone Qn” (MSE Pharmazeutika GmbH, priority 1999, published 2005) one finds effect on migraine data, which are given here for one compound.

The test concerns migraine and tension headaches. Put plainly: treatment of pain from migraine and tension headaches with Q-10 (oral capsules vs nasal formulation). It is filed as in vivo. Particulars: oral administration of from 600 to 800 mg of Q-10 in the form of capsules. The source says: The spray according to the invention is preferably an oral or nasal spray, so that the administration of ubiquinone Qn or ubiquinone Qn precursors can be effected on an inhalative or intranasal route. The spray according to the invention is useful, in particular, for the treatment of pain conditions as encountered in migraine and neuropathy, in neural disorders, such as depressions, psychoses, lack of concentration, and in neurodegenerative diseases, such as Alzheimer's, Parkinson's, Huntington's, multiple sclerosis and cerebral paresis. The application as an oral or nasal spray seems to accelerate the transport of ubiquinone Qn or its precursors through the blood-brain barrier. […] In principle, however, doses of as high as 1000 mg can be employed.

The structures appear in SMILES notation.

As for `COC1=C(OC)C(=O)C(C/C=C(\C)CC/C=C(\C)CC/C=C(\C)CC/C=C(\C)CC/C=C(\C)CC/C=C(\C)CC/C=C(\C)CC/C=C(\C)CC/C=C(\C)CCC=C(C)C)=C(C)C1=O` [Q-10, 2,3-dimethoxy-5-methyl-6-deca-prenyl-1,4-benzoquinone], the effect on migraine result was “virtually no effect”.
